We go through one compound from patent US7524840B2, “7,8-disubstituted pyrazolobenzodiazepines” (Hoffmann-La Roche Inc., priority 2004, dated 2009).

The subject of assay [1] is HCT-116. Put plainly: HCT-116 (colon) cell-based MTT proliferation assay. The note with it: Homo sapiens, HCT-116, 96 h, 4 days post addition of test compound, read-out: Antiproliferative Activity HCT 116 (colon) Assay IC50. Here is the method:
The estrogen receptor negative epithelial breast carcinoma line (MDA-MB-435) was purchased from American Type Cell Culture Collection (ATCC; Rockville, Md.) and was grown in the medium recommended by ATCC. For analysis of the effect of the test compounds on growth of these cells, the cells were plated at 2000 cells per well in a 96-well tissue culture plate, and were incubated overnight at 37° C. with 5% CO2. The next day, the test compounds were dissolved in 100% dimethyl sulfoxide (DMSO) to yield a 10 mM stock solution. Each compound was diluted with sterile medium to 1 mM in a sufficient quantity to yield a final concentration of 120 μM. The compounds were then serially diluted in medium with 1.2% DMSO. One-fourth final volume of the diluted compounds was transferred to 96 well plates. Test compounds were assayed in duplicate. DMSO was added to a row of “control cells” such that the final concentration of DMSO in each well was 0.3%. Wells to which no cells were added served as the “blank.” Wells to which no inhibitor was added served as “no inhibitor control”. The plates were returned to the incubator, and 5 days post addition of test compound, were analyzed as described below.
3-(4,5-Dimethylthiazole-2-yl)-2,5-diphenyl-2H-tetrazolium bromide (thiazolyl blue; MTT) was added to each well to yield a final concentration of 1 mg/mL. The plates were then incubated at 37° C. for 3 hours. The plates were centrifuged at 1000 rpm for 5 minutes prior to aspiration of the MTT-containing medium. The MTT-containing medium was then removed and 100 μL 100% ethanol was added to each well to dissolve the resulting formazan metabolite. To ensure complete dissolution, plates were shaken for 15 minutes at room temperature. Absorbencies were read in a microtiter plate reader (Molecular Dynamics) at a wavelength of 570 nm with a 650 nm reference. Percent inhibition was calculated by subtracting the absorbance of the blank (no cell) wells from all wells, then subtracting the division of the average absorbance of each test duplicate by the average of the controls from 1.00. Inhibitory concentrations (IC50) were determined from the linear regression of a plot of the logarithm of the concentration versus the percent inhibition.
The colon adenocarcinoma line SW480 and the colon carcinoma line HCT-116 also were obtained from the ATCC and were tested according to the same protocol provided above for MDA-MB-435 cell based assay with the following modifications. Cell line SW480 was plated at 1000 cells per well and analyzed at 6 days post addition of the test compound. Cell line HCT-116 was plated at 1000 cells per well and analyzed at 4 days post addition of test compound.
For orientation: Tetrazolium dyes change colour on reduction, which living cells bring about.

Assay [2] concerns VEGF-stimulated HUVEC. Put plainly: VEGF-stimulated HUVEC proliferation assay (BrdU). It counts as cell-based. As to conditions: Homo sapiens, BrdU labeling, VEGF 20 ng per mL, 24 hour exposure, read-out: Antiproliferative Activity VEGF-stimulated HUVEC Assay IC50. Here is the method: The antiproliferative activity of test compounds of this invention in cell-based assays was evaluated by BrdU assay using the BrdU kit (Roche Biochemicals 1-647-229). Human umbilical vein endothelial cells (HUVEC, Clonetics CC-2519) were cultured in EGM-2 (Clonetics CC-3162) medium and seeded at 10000 cells per well in a volume of 200 μL of EGM-2 (Clonetics CC-3162) media in a 96-well flat bottom plates (Costar 3595) overnight. After 24 hours of growth at 37° C. with 5% CO2, the incubation media was removed slowly by aspiration, and the content of each well was washed with 300 μL pre-warmed EBM-2 (Clonetics CC-3156) containing 50 μg per mL of gentamycin and 50 ng per mL of amphotercin-B (Clonetics CC-4083). Subsequently, the remaining media was again aspirated and replaced with 160 μL per well of serum starvation media (EBM-2 supplemented with 1% heat inactivated FBS (Clonetics CC-4102), 50 μg per mL gentamycin and 50 ng per mL of amphotercin-B (Clonetics CC-4083), 10 units per mL of Wyeth-Ayerst heparin (NDC0641-0391-25), and 2 mM L-glutamine (GIBCO 25030-081). After serum starving the cells for 24 hours, 20 μL of test compound at 10× test concentration in serum starvation medium with 2.5% DMSO was added to the appropriate wells. The control wells contained 20 μL of serum starvation medium with 2.5% DMSO. Plates were returned to the incubator for 2 hours. After pre-incubating the cells with the test compounds for 2 hours, 20 μL of growth factors at 10X assay concentration diluted in serum starvation media, FGF at 50 ng per mL, or VEGF (R&D systems 293-VE) at 200 ng per mL were added. The final concentration of FGF in the assay was 5 ng per mL and the final concentration of VEGF in the assays was 20 ng per mL. The growth factor free control wells had 20 μL per well of serum starvation media with the same amount of BSA as the wells with growth factors. The plates were returned to the incubator for an additional 22 hours.
After 24 hour exposure to the test compounds, the cells were labeled with BrdU (Roche Biochemicals 1-647-229), by adding 20 μL per well of BrdU labeling reagent that has been diluted (1:100) in serum starvation medium. The plates were then returned to the incubator for 4 hours. The labeling medium was removed by draining the medium onto paper towels. […] The plates were read at 450 nm with reference wavelength of 650 nm. The percent inhibition for each test compound was calculated by subtracting the absorbency of the blank (no cells) wells from all wells, then subtracting the division of the average absorbency of each test duplicate by the average of the controls from 1. […] The IC50 is determined from the linear regression of a plot of the logarithm of the concentration versus percent inhibition.
Background: Incorporation of labelled thymidine or its analogues reports DNA synthesis.

As a reminder, the IC50 is the concentration that gives 50% inhibition. For the compound `COc1cc2c(cc1F)C(c1ccccc1Cl)=Nc1c(n[nH]c1C)N2` [IVa, 5-(2-chlorophenyl)-1,2-dihydro-7-fluoro-8-methoxy-3-methyl-pyrazolo[3,4-b][1,4]benzodiazepine], the IC50 in assay [1] amounted to 1040 nM; in assay [2] it was 23 nM.
